Assay results published in patent publication US20230201187A1, “USE OF NAD+ PRECURSORS, STING INHIBITORS, AND FXR AGONISTS FOR INHIBITING SARS-COV-2 (COVID-19)-INDUCED CYTOKINE RELEASE” (Georgetown University, priority 2020, published 2023).

Assays:
Type in all cases: in vivo
[1] = test system: STING; assay: STING mRNA expression in kidneys of young and old mice (Example 1); conditions: kidneys of 21-month-old mice; 25 mg/kg body weight/day intraperitoneally for eight weeks; FIG. 1A
Experimental: (§1) FIGS. 1A-1B show mRNA expression of STING (FIG. 1A) and cyclic guanosine monophosphate-adenosine monophosphate (cyclic GMP-AMP) synthase (cGAS) (FIG. 1B) in the kidneys of 4-month old (“young”) and 21-month-old (“old”) mice, in which a cohort of mice were administered a pan estrogen-related receptor (ERR) agonist, as described in Example 1.
(§2) A study was conducted to evaluate STING and cGAS under inflammatory conditions.
(§3) In one aspect of the study, mRNA expression and protein levels of STING and cGAS were assessed in kidneys of mice that are 4 months old (young) and kidneys of mice that are 21 months old (aged and marked by inflammation).
(§4) In a second aspect of the study, 4-month-old mice and 21-month-old mice were treated with a pan ERR agonist, SLU-PP-332 (25 mg/kg body weight/day, administered intraperitoneally, for eight weeks).

[2] = test system: cGAS; assay: cGAS mRNA expression in kidneys of young and old mice (Example 1); conditions: kidneys of 21-month-old mice; 25 mg/kg body weight/day intraperitoneally for eight weeks; FIG. 1B
Experimental: as §1, §2, §3, §4

[3] = test system: STING; assay: STING protein levels (immunoblot) in kidneys of young and old mice (Example 1); conditions: kidneys of 21-month-old mice; 25 mg/kg body weight/day intraperitoneally for eight weeks; FIGS. 2A and 2B
Experimental: (§5) FIGS. 2A-2D show STING protein levels presented as an immunoblot (FIG. 2A) and quantified (FIG. 2B), and cGAS protein levels presented as an immunoblot (FIG. 2C) and quantified (FIG. 2D), in the kidneys of 4-month old (“young”) and 21-month-old (“old”) mice, in which a cohort of mice were administered a pan ERR agonist, as described in Example 1.
as §2, §3, §4

[4] = test system: cGAS; assay: cGAS protein levels (immunoblot) in kidneys of young and old mice (Example 1); conditions: kidneys of 21-month-old mice; 25 mg/kg body weight/day intraperitoneally for eight weeks; FIGS. 2C and 2D
Experimental: as §5, §2, §3, §4

[5] = test system: PGC-1α; assay: PGC-1α mRNA expression in kidneys of old mice (Example 2); conditions: kidneys of 21-month-old mice; 1 mg/kg body weight/day intraperitoneally for three weeks; FIG. 3A
Experimental: (§6) FIGS. 3A-3F show mRNA expression of peroxisome proliferator-activated receptor-gamma coactivator (PGC)-1α (PGC-1α) (FIG. 3A), PGC-1β (FIG. 3B), ERR-alpha (ERRα) (FIG. 3C), p21 (FIG. 3D), interleukin (IL)-1β (FIG. 3E), and signal transducer and activator of transcription 3 (Stat3) (FIG. 3F) in the kidneys of 4-month old (“young”) and 21-month-old (“old”) mice, in which a cohort of old mice were administered a STING inhibitor (“SI”), C-176, as described in Example 2.
(§7) A study was conducted to evaluate expression levels of various markers and cytokines under inflammatory conditions, and the impact of administering a STING inhibitor on expression and protein levels.
(§8) In one aspect of the study, mRNA expression levels of PGC-1α, PGC-1β, ERRα, p21, IL-1β, and Stat3 were examined in kidneys of mice that are 4 months old (young) and kidneys of mice that are 21 months old (aged and marked by inflammation).
(§9) In a second aspect of the study, an inhibitor of STING, C-176, was administered (1 mg/kg body weight/day, administered intraperitoneally, for three weeks) to the 21-month-old mice.

[6] = test system: PGC-1β; assay: PGC-1β mRNA expression in kidneys of old mice (Example 2); conditions: kidneys of 21-month-old mice; 1 mg/kg body weight/day intraperitoneally for three weeks; FIG. 3B
Experimental: as §6, §7, §8, §9

[7] = test system: ERRα; assay: ERRα mRNA expression in kidneys of old mice (Example 2); conditions: kidneys of 21-month-old mice; 1 mg/kg body weight/day intraperitoneally for three weeks; FIG. 3C
Experimental: as §6, §7, §8, §9

[8] = test system: p21; assay: p21 mRNA expression in kidneys of old mice (Example 2); conditions: kidneys of 21-month-old mice; 1 mg/kg body weight/day intraperitoneally for three weeks; FIG. 3D
Experimental: as §6, §7, §8, §9

[9] = test system: IL-1β; assay: IL-1β mRNA expression in kidneys of old mice (Example 2); conditions: kidneys of 21-month-old mice; 1 mg/kg body weight/day intraperitoneally for three weeks; FIG. 3E
Experimental: as §6, §7, §8, §9

[10] = test system: Stat3; assay: Stat3 mRNA expression in kidneys of old mice (Example 2); conditions: kidneys of 21-month-old mice; 1 mg/kg body weight/day intraperitoneally for three weeks; FIG. 3F
Experimental: as §6, §7, §8, §9

[11] = test system: PGC-1α; assay: PGC-1α protein levels (immunoblot) in kidneys of old mice (Example 2); conditions: kidneys of 21-month-old mice; 1 mg/kg body weight/day intraperitoneally for three weeks; FIGS. 4A and 4B
Experimental: (§10) FIGS. 4A-4D show PGC-1α protein levels presented as an immunoblot (FIG. 4A) and quantified (FIG. 4B), and p-Stat3 protein levels presented as an immunoblot (FIG. 4C) and quantified (FIG. 4D), in the kidneys of 4-month old (“young”) and 21-month-old (“old”) mice, in which a cohort of the old mice were administered a STING inhibitor (“SI”), C-176, as described in Example 2.
as §7, §9

[12] = test system: Stat3; assay: Stat3 protein levels (immunoblot) in kidneys of old mice (Example 2); conditions: kidneys of 21-month-old mice; 1 mg/kg body weight/day intraperitoneally for three weeks; FIGS. 4C and 4D
Experimental: as §10, §7, §9

[13] = test system: IL-1β; assay: IL-1β mRNA expression in kidneys of db/db mice (Example 3); conditions: kidneys of 4-month-old db/db mice; 1 mg/kg body weight/day intraperitoneally for eight weeks; FIG. 5
Experimental: (§11) A study was conducted to evaluate mRNA expression and protein levels of various markers and cytokines in kidneys of 4-month-old db/db mice, which is a model of type 2 diabetes due to a deficiency in leptin receptor activity, and in 4-month-old db/m mice, which are nondiabetic controls; and the effects of administering STING inhibitor C-176 (1 mg/kg body weight/day, administered intraperitoneally, for eight weeks) to these mice.

[14] = test system: p-Stat3; assay: p-Stat3 protein levels in kidneys of db/db mice (Example 3); conditions: kidneys of 4-month-old db/db mice; 1 mg/kg body weight/day intraperitoneally for eight weeks; FIGS. 6A and 6B
Experimental: (§12) FIGS. 6A-6C show p-Stat3 protein levels presented as an immunoblot (FIG. 6A) and quantified (FIG. 6B), and protein levels of phospho-interferon regulatory factor (p-IRF) (FIG. 6C) in the kidneys of […] diabetic mice (“db/db”) and non-diabetic mice (“db/m”) mice, in which a cohort of the mice were administered STING inhibitor C-176, as described in Example 3.
as §11

[15] = test system: p-IRF3; assay: p-IRF3 protein levels in kidneys of db/db mice (Example 3); conditions: kidneys of 4-month-old db/db mice; 1 mg/kg body weight/day intraperitoneally for eight weeks; FIG. 6C
Experimental: as §12, §11

[16] = test system: inflammation in the kidneys of diabetic mice; assay: Inflammation in the kidneys of diabetic mice (Example 3); conditions: db/db mice; 1 mg/kg body weight/day intraperitoneally for eight weeks
Experimental: as §11

Row | Compound | mRNA expression of STING [1] | mRNA expression of cGAS [2] | protein levels of STING [3] | protein levels of cGAS [4] | mRNA expression of PGC-1α [5] | mRNA expression of PGC-1β [6] | mRNA expression of ERRα [7] | mRNA expression of p21 [8] | mRNA expression of IL-1β [9] | mRNA expression of Stat3 [10] | protein levels of PGC-1α [11] | protein levels of Stat3 [12] | mRNA expression of IL-1β (activation of IL-1β) [13] | p-Stat3 levels [14] | p-IRF3 levels [15] | inflammation in the kidneys of diabetic mice [16]
1 | O=C(N/N=C/c1ccc2ccccc2c1)c1ccc(O)cc1 [SLU-PP-332] | significantly reversed the increase | significantly reversed the increase | significantly reversed the increase | significantly reversed the increase |  |  |  |  |  |  |  |  |  |  |  | 
2 | O=C(Nc1ccc(I)cc1)c1ccc([N+](=O)[O-])o1 [C-176, N-(4-iodophenyl)-5-nitro-2-furancarboxamide] |  |  |  |  | reversed the decrease | reversed the decrease | reversed the decrease | reversed the increase | reversed the increase | reversed the increase | reversed the decrease | reversed the increase | reversed the activation | reversed the increase | reversed the increase | decreases inflammation
